# What was measured:
# Format in all cases: cell-based, Escherichia coli
# E. coli mutant CA8002 = test: Disc diffusion, zone of inhibition; settings: 250 μg/disc, Luria agar
# Method: (§1) To ascertain the involvement of gyrA mutation, another E.coli strain NK 5819 which is also GyrA″ and nalidixic acid resistant was tested for arteether sensitivity. As expected, strain NK5819 was also sensitive only to a-isomer of arteether. […] The assays for arteether sensitivity was performed by the standard single disk diffusion method (Bauer et al, 1966). As a next step, we isolated gyrA mutants of E.coli strain CA 8000, which is otherwise Gyr+ and nalidixic acid sensitive. The gyrA mutants of CA8000 were isolated as nalidixic acid resistant colonies (20 ug/ml), after mutagenic treatment with NTG ([…]). The isolated CA8000 gyrA mutants were also sensitive only to a isomer of arteether. […] To define precisely the involvement of gyr genes only in the a-arteether sensitivity, we utilised two recombinant clones (pMK 90 and pMK47 containing functional gyr A and gyrB genes respectively) in trans-complementation assays. For this purpose, we mobilized the plasmid clones into the E.coli gyr mutant strains. The resulting transformants were now nalidixic acid sensitive and a-arteether resistant. This constituted the direct evidence supporting our observation that DNA gyrase enzyme alone is involved in conferring a-arteether sensitivity to E.coli strain. […] DNA gyrase enzyme is essential for the bacterial growth. This enzyme transiently breaks the DNA strands and introduces negative superhelical turns in an ATP-dependent process. The E.coli DNA gyrase enzyme is a tetramer with two subunits A and B. These two subunits are nalidixic acid and coumermycin sensitive respectively (U.S. Pat. No. 6,127,405 and a co-pending patent).
# (§2) In order to develop an arteether resistant mutants from an arteether sensitive strains a reverse strategy was applied. Quinoline/fluoroquinolone (Q/FQs) resistant strains were developed spontaneously i.e. screening overnight log phase culture of the Quinolone/fluoroquinolone sensitive i.e. arteether resistant strain (E coli CA 8000) on the poison agar plate of the Q/FQs. The Q/FQ resistant mutants which appeared on the poison agar plates were first purified through single colony purification and then checked for their arteether sensitivity. These arteether sensitive mutants on the contrary when checked for their Q/Fqs resistance they show different level of Q/FQs resistance.
# (§3) The strains of E coli mutants were grown on Luria agar medium and beta-arteether (250 μg/disc) was applied on disc. The clear zone around the disc killing the bacteria is called Zone of Inhibition (ZOI). This is the measure of sensitivity of the strain towards the compound […].
# E. coli mutant CA8012 = test: Disc diffusion, zone of inhibition; settings: 250 μg/disc, Luria agar
# Method: as §1, §2, §3
# E. coli mutant CA8003 = test: Disc diffusion, zone of inhibition; settings: 250 μg/disc, Luria agar
# Method: as §1, §2, §3
# E. coli mutant CA8001 = test: Disc diffusion, zone of inhibition; settings: 250 μg/disc, Luria agar
# Method: as §1, §2, §3
# E. coli mutant CA8009 = test: Disc diffusion, zone of inhibition; settings: 250 μg/disc, Luria agar
# Method: as §1, §2, §3
# E. coli mutant CA8010 = test: Disc diffusion, zone of inhibition; settings: 250 μg/disc, Luria agar
# Method: as §1, §2, §3
# E. coli mutant CA8007 = test: Disc diffusion, zone of inhibition; settings: 250 μg/disc, Luria agar
# Method: as §1, §2, §3
# E. coli mutant CA8006 = test: Disc diffusion, zone of inhibition; settings: 250 μg/disc, Luria agar
# Method: as §1, §2, §3
# E. coli ET8000 (gyrA−) = test: Disc diffusion, zone of inhibition; settings: 250 μg/disc, Luria agar
# Method: as §1, §3
# E. coli DH5 α (gyrA−) = test: Disc diffusion, zone of inhibition; settings: 250 μg/disc, Luria agar
# Method: as §1, §3
# E. coli NK5819 (gyrA−) = test: Disc diffusion, zone of inhibition; settings: 250 μg/disc, Luria agar
# Method: as §1, §3
# [1] = system: gyr mutant strains of E.coli; test: Arteether sensitivity of gyr mutants; settings: gyr mutants DH5a, NK5819, MTCC 482, CA8000 gyrA mutants
# Method: as §1, with “This enzyme transiently breaks the DNA strands and introduces negative superhelical turns in an ATP-dependent process. The E.coli DNA gyrase enzyme is a tetramer with two subunits A and B. These two subunits are nalidixic acid and coumermycin sensitive respectively (U.S. Pat. No. 6,127,405 and a co-pending patent).” left out
smiles,measurement,setting,value
CCO[C@H]1O[C@@H]2O[C@@]3(C)CC[C@H]4[C@H](C)CC[C@@H]([C@H]1C)[C@@]24OO3 [beta-arteether],Net ZOI in mm,E. coli mutant CA8002,5 mm
same,Net ZOI in mm,E. coli mutant CA8012,8 mm
same,Net ZOI in mm,E. coli mutant CA8003,9 mm
same,Net ZOI in mm,E. coli mutant CA8001,10 mm
same,Net ZOI in mm,E. coli mutant CA8009,14 mm
same,Net ZOI in mm,E. coli mutant CA8010,10 mm
same,Net ZOI in mm,E. coli mutant CA8007,8 mm
same,Net ZOI in mm,E. coli mutant CA8006,11 mm
same,Net ZOI in mm,E. coli ET8000 (gyrA−),5 mm
same,Net ZOI in mm,E. coli DH5 α (gyrA−),5 mm
same,Net ZOI in mm,E. coli NK5819 (gyrA−),7 mm
same,Sensitivity,[1],none of the above described gyr mutants were sensitive

# Reference: patent US7510836B2, “Alpha arteether resistance domain” (priority 2003, dated 2009)
